Measurements published in paper PMC11467737, “Osteocalcin binds to a GPRC6A Venus fly trap allosteric site to positively modulate GPRC6A signaling” (FASEB BioAdvances, 2024).
Numbering of substitutions follows the chain as printed. Bridge positions count the residues as written; N and C are the ends. Ends that are not written are not given here.

Experiments:
K352E hGPRC6A = biological target: T1, K352E hGPRC6A (Homo sapiens, UniProt Q5T6X5, K352E); test: cAMP accumulation in HEK-293 cells transfected with K352E hGPRC6A; type: cell-based; conditions: K352E mutant; for cAMP accumulation by Ocn small fragments: fragment at 20 nM, Figure 6C
T1 construct: expressed in transfected cells; host or cells: HEK-293, pcDNA3
T1 sequence (Q5T6X5 19-926 K352E): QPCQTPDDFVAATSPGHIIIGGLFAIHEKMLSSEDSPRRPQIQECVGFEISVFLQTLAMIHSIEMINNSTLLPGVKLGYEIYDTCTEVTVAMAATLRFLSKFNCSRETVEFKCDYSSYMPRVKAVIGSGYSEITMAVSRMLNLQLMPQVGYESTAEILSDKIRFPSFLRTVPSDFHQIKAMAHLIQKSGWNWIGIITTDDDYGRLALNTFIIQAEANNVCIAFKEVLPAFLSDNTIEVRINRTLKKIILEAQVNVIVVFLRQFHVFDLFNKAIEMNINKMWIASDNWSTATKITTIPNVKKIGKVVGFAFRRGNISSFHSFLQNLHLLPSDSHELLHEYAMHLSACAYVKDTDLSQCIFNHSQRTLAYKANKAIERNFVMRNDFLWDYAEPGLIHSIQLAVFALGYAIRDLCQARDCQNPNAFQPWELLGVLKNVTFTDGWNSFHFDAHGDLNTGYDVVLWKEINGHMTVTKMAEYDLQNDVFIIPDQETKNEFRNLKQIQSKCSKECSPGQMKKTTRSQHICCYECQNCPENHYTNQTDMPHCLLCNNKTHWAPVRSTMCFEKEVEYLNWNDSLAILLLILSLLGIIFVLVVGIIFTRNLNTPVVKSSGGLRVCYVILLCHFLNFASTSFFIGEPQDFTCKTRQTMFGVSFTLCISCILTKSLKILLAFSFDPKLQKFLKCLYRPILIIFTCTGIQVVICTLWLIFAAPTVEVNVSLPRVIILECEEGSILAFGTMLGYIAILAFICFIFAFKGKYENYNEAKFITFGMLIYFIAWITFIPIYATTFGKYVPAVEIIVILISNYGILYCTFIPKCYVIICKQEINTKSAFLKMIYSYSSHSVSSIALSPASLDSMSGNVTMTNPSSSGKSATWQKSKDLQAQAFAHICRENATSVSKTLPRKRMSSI
Method: (§1) HEK‐293 transfected with human GPRC6A isoform cDNA plasmids cells (10^5 cells/well)[30] were cultured in 24‐well plates in DMEM supplemented with 10% fetal bovine serum and 1% penicillin/streptomycin (100 U/mL of penicillin and 100 μg/mL of streptomycin) for 48 h followed by 4 h incubation in DMEM/F12 containing 0.1% BSA and 0.5 mM IBMX to achieve quiescence and preventing cAMP degradation. Quiescent cells were treated with vehicle control, various ligands at concentration as indicated for 40 min at 37°C. Then, the reaction was stopped, and the cells lysed with 0.5 mL 0.1 N HCl. cAMP levels were measured by using Cyclic AMP EIA kit (Cayman Chemical; Ann Arbor, MA, USA) following the manufacture's protocol.
(§2) In‐vitro mutagenesis by PCR‐mediated recombination QuikChange II XL Site‐Directed Mutagenesis Kit (Agilent) was performed using the cDNA of human GPRC6A cloned in the vector pcDNA3 (Invitrogen) as a template. The primer sets are as follows. K352E.sen: […]; K352E.antisen: […]; H355P.sen: […]; H355P.antisen: […]; K352E/H355P.sen: […]; and K352E/H355P.antisen: […]. All mutants were confirmed by sequencing.

H355P hGPRC6A = biological target: T2, H355P hGPRC6A (Homo sapiens, UniProt Q5T6X5, H355P); test: cAMP accumulation in HEK-293 cells transfected with H355P hGPRC6A; type: cell-based; conditions: H355P mutant; for cAMP accumulation by Ocn small fragments: fragment at 20 nM, Figure 6C
T2 construct: expressed in transfected cells; host or cells: HEK-293, pcDNA3
T2 sequence (Q5T6X5 19-926 H355P): T1 sequence (Q5T6X5 19-926 K352E) with E334K, H337P
Method: as §1, §2

[1] = tested on: GPRC6A isoforms 1, 2 and 3; test: GPRC6A signaling in GPRC6A isoforms (read-out not given); type: cell-based, human
Method: All culture reagents were from Invitrogen (Waltham, MA, USA). Human embryonic kidney HEK‐293 cells were obtained from American Type Culture Collection and cultured in DMEM medium supplemented with 10% fetal bovine serum and 1% Penicillin/Streptomycin (P/S). Briefly, HEK‐293 cells transfected with/without human GPRC6A isoforms cDNA plasmids were starved by overnight incubation in serum‐free DMEM/F12 containing 0.1% bovine serum albumin (BSA) and stimulated with various ligands at different doses. ERK activation was assessed 20 min after treatment by using ERK1/2 (phospho‐T203/Y204) ELISA Kit (Invitrogen; Waltham, MA, USA) corrected for the amount of total ERK using ERK1/2 (Total) ELISA Kit (Invitrogen; Waltham, MA, USA) to measure ERK levels.
as §1, with “Quiescent cells were treated with vehicle control, various ligands at concentration as indicated for 40 min at 37°C.” left out

REVCELNPDC (disulfide 4-10 (inferred)) [Ocn 20–29, synthesized human Ocn decapeptide fragment located in the middle of the protein]
cAMP accumulation by Ocn small fragments (K352E hGPRC6A): no response
cAMP accumulation by Ocn small fragments (H355P hGPRC6A): no response
Response of GPRC6A isoforms 2 and 3 ([1]; isoforms 2 and 3): diminished responses

RFYGPV [Ocn 44–49, synthesized human Ocn C‐terminal hexapeptide]
cAMP accumulation by Ocn small fragments (K352E hGPRC6A): significantly attenuated
cAMP accumulation by Ocn small fragments (H355P hGPRC6A): significantly attenuated
Activation of GPRC6A signaling in GPRC6A isoforms ([1]; all isoforms, including isoforms 2 and 3 with deletions in the VFT): activated GPRC6A signaling in all GPRC6A isoforms

osteocalcin (YLYQWLGAPVPYPDPLEPRREVCELNPDCDELADHIGFQEAYRRFYGPV; not fully specified; ends and bridges not checked; UniProt P02818 52-100, looked up) [Ocn 1–49, full human Ocn (49 aa) synthesized by BioMatik; methods also describe decarboxylated Ocn purified from bovine tibial bone, reference compound]
cAMP accumulation, dose response of full-length Ocn, versus wild-type receptor (K352E hGPRC6A; Figure 6A): significantly decreased
cAMP accumulation, dose response of full-length Ocn, versus wild-type receptor (H355P hGPRC6A; Figure 6A): significantly decreased
